Measured values: the supplement of paper PMC10331698
± gives the standard deviation of the averaged measurements.

Tests used:
Assay in all cases: level (log10 ratio to DMSO vehicle control); higher = higher biomarker level / cell amount than vehicle control
Details in all cases: in DMSO
[1] = compound: C=CC(=O)OCC(F)(F)C(F)(F)C(F)(F)C(F)(F)C(F)(F)C(F)(F)C(F)(F)F [1H,1H-Perfluorooctyl acrylate]
Method: (§1)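 BioMAP Diversity Plus panel of 12 human primary cell co-culture systems (3C, 4H, LPS, SAg, BT, BF4T, BE3C, CASM3C, HDF3CGF, KF3CT, MyoF, Mphg). Compounds were added 1 h before stimulation and left for 24 h (MyoF 48 h; BT 72 h for soluble read-outs or 6 d for IgG). Biomarkers were read by ELISA, cytotoxicity by SRB, PBMC viability and proliferation by Alamar Blue. Each well value was divided by the mean of 8 DMSO control wells on the same plate and log10 transformed; duplicate blinded samples were tested at 4 concentrations.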

[2] = compound: COC(=O)CCC(F)(F)C(F)(F)C(F)(F)C(F)(F)F [Methyl 2H,2H,3H,3H-perfluoroheptanoate]
Method: as §1

Perfluoropentanoic acid = compound: O=C(O)C(F)(F)C(F)(F)C(F)(F)C(F)(F)F [Perfluoropentanoic acid]
Method: as §1

[3] = compound: O=C(O)C(F)(F)C(F)(F)C(F)F [4H-Perfluorobutanoic acid]
Method: as §1

[4] = compound: O=C(O)C(F)(F)OC(F)(F)C(F)(F)OC(F)(F)C(=O)O [Perfluoro-3,6-dioxaoctane-1,8-dioic acid]
Method: as §1

[5] = compound: O=S(=O)(O)C(F)(F)C(F)(F)C(F)(F)C(F)(F)C(F)(F)C(F)(F)F [Perfluorohexanesulfonic acid]
Method: as §1

Row | Test System | level (log10) ([1]; 6700 nM) | level (log10) ([1]; 20000 nM) | level (log10) ([1]; 60000 nM) | level (log10) ([2]; 6700 nM) | level (log10) ([2]; 20000 nM) | level (log10) ([2]; 60000 nM) | level (log10) (Perfluoropentanoic acid; 6700 nM) | level (log10) (Perfluoropentanoic acid; 20000 nM) | level (log10) (Perfluoropentanoic acid; 60000 nM) | level (log10) ([3]; 6700 nM) | level (log10) ([3]; 20000 nM) | level (log10) ([3]; 60000 nM) | level (log10) ([4]; 6700 nM) | level (log10) ([4]; 20000 nM) | level (log10) ([4]; 60000 nM) | level (log10) ([5]; 6700 nM) | level (log10) ([5]; 20000 nM) | level (log10) ([5]; 60000 nM)
1 | HDF3CGF:CD54/ICAM-1 | -0.015 ± 0.0028 | -0.037 ± 0.0042 | -0.0545 ± 0.013 | -0.0095 ± 0.0092 | 0.012 ± 0.0028 | -0.0025 ± 0.028 | 0.039 ± 0.054 | 0.035 ± 0.033 | 0.0485 ± 0.046 | 0.009 ± 0.021 | 0.013 ± 0.0099 | 0.0035 ± 0.005 | -0.0095 ± 0.0092 | 0.0015 ± 0.00071 | -0.0085 ± 0.0035 | -0.0195 ± 0.00071 | -0.0325 ± 0.00071 | -0.0345 ± 0.0035
2 | HDF3CGF:CD106/VCAM-1 | -0.016 ± 0.011 | -0.031 ± 0.013 | -0.097 ± 0.0057 | -0.0395 ± 0.033 | -0.0135 ± 0.053 | -0.0235 ± 0.066 | -0.0095 ± 0.005 | 0.0035 ± 0.036 | 0.0035 ± 0.022 | -0.0385 ± 0.018 | -0.0525 ± 0.022 | -0.0445 ± 0.096 | -0.0075 ± 0.00071 | -0.0085 ± 0.016 | -0.0035 ± 0.05 | 0.0105 ± 0.011 | 0.0165 ± 0.00071 | -0.0155 ± 0.0035
3 | HDF3CGF:CXCL8/IL-8 | 0.0045 ± 0.0064 | 0.0045 ± 0.0064 | 0.0095 ± 0.0035 | -0.006 ± 0.013 | -0.01 ± 0.024 | -0.0035 ± 0.0021 | 0.003 ± 0.0057 | -0.006 ± 0.0028 | 0.002 ± 0.023 | 0.001 ± 0.0014 | 0.0025 ± 0.0078 | 0.0095 ± 0.023 | -0.0005 ± 0.0021 | 0.0135 ± 0.005 | 0.017 ± 0.0042 | 0.0045 ± 0.013 | 0.0035 ± 0.015 | 0.0065 ± 0.016
4 | HDF3CGF:CXCL9/MIG | -0.0265 ± 0.0035 | -0.029 ± 0.03 | -0.0745 ± 0.0078 | 0.014 | 0.0255 ± 0.021 | -0.0225 ± 0.013 | -0.004 ± 0.0057 | -0.004 ± 0.018 | -0.003 ± 0.02 | -0.0015 ± 0.033 | -0.0035 ± 0.025 | -0.0125 ± 0.028 | -0.0185 ± 0.016 | 0.0135 ± 0.0092 | 0.0085 ± 0.005 | -0.0195 ± 0.0021 | -0.017 | 0.005 ± 0.042
5 | HDF3CGF:CXCL10/IP-10 | -0.001 ± 0.0057 | -0.0455 ± 0.022 | -0.047 | -0.011 ± 0.0085 | 0.006 ± 0.016 | -0.026 ± 0.0071 | 0 ± 0.014 | -0.011 ± 0.0028 | 0.006 ± 0.0057 | -0.0145 ± 0.016 | 0.0025 ± 0.0021 | 0.0085 ± 0.012 | 0.0105 ± 0.023 | -0.004 ± 0.011 | -0.0085 ± 0.023 | 0.0035 ± 0.0064 | 0.0015 ± 0.021 | -0.0135 ± 0.012
6 | HDF3CGF:CXCL11/I-TAC | -0.017 ± 0.011 | -0.0275 ± 0.037 | -0.063 ± 0.011 | -0.002 ± 0.013 | 0.0215 ± 0.0021 | -0.0055 ± 0.011 | -0.0085 ± 0.012 | -0.0065 ± 0.015 | 0.005 ± 0.054 | -0.0155 ± 0.071 | 0.003 ± 0.0071 | 0.0125 ± 0.0035 | 0.0105 ± 0.011 | 0.0235 ± 0.012 | 0.012 ± 0.0042 | 0.01 | -0.004 ± 0.0099 | -0.004 ± 0.021
7 | HDF3CGF:Collagen I | -0.0065 ± 0.05 | 0.0415 ± 0.005 | 0.0675 ± 0.05 | 0.0615 ± 0.071 | 0.0465 ± 0.016 | 0.051 ± 0.041 | -0.0295 ± 0.012 | -0.01 ± 0.0014 | 0.003 ± 0.064 | -0.0445 ± 0.028 | -0.024 ± 0.072 | 0.0525 ± 0.029 | -0.011 ± 0.068 | -0.0135 ± 0.053 | 0.0405 ± 0.015 | 0.0085 ± 0.015 | 0.0185 ± 0.015 | 0.0555 ± 0.067
